Data on 51 compounds can be found in patent publication US6972296B2, “Carboxylic acid derivatives that inhibit the binding of integrins to their receptors” (Encysive Pharmaceuticals Inc., priority 1999, dated 2005).

T1 sequence (P13612 34-1032): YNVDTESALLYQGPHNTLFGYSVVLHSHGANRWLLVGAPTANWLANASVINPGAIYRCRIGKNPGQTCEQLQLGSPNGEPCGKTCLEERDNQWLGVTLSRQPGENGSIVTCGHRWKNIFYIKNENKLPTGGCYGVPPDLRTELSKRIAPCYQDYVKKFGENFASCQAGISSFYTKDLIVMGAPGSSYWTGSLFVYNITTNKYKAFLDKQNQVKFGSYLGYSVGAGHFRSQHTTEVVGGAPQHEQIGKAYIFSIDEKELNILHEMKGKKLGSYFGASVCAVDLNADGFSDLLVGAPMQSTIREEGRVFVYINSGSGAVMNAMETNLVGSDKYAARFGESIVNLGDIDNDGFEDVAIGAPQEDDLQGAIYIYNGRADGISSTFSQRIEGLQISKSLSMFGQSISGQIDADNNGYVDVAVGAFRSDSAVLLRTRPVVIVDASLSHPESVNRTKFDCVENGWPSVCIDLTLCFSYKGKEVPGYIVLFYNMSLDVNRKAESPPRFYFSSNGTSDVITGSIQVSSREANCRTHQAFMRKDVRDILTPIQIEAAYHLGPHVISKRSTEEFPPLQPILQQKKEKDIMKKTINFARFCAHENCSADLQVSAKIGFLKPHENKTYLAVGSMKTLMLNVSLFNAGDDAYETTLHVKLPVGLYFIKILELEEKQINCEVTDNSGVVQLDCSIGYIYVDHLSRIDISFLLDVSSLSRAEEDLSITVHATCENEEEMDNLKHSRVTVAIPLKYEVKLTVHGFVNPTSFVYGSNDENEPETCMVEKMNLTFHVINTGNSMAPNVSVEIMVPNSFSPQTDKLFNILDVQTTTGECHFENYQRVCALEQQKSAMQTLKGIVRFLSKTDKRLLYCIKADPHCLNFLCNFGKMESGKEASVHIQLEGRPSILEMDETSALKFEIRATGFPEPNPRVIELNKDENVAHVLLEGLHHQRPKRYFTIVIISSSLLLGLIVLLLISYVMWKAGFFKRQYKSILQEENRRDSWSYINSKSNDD
T1 sequence (P05556 21-798): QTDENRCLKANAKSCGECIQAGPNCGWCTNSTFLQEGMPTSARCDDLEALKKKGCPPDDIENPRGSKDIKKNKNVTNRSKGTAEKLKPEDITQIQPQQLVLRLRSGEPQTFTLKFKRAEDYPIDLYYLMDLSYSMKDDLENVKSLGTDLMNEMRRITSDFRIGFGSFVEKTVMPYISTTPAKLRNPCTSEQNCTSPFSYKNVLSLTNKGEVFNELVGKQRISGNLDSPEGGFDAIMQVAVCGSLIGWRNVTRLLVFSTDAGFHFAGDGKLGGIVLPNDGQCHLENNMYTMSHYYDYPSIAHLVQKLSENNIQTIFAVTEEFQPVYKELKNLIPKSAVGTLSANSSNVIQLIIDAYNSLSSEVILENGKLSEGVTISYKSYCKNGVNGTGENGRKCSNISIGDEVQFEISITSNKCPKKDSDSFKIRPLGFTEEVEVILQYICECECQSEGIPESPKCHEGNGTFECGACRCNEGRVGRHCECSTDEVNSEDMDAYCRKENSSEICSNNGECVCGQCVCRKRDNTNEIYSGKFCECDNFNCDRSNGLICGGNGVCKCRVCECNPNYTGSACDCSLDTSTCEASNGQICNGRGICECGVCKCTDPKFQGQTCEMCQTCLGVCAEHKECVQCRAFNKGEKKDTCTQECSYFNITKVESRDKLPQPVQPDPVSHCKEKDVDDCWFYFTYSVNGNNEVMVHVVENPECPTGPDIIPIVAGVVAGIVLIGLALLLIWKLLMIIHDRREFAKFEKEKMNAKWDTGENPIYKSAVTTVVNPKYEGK

This assay addresses T1, α4β1 integrin (Homo sapiens, UniProt P05556+P13612).
T1 construct: endogenous in cells; host or cells: Ramos cells
Kind of assay: Adhesion of calcein-labeled Ramos cells to CS1 (fibronectin) peptide conjugated ovalbumin. The assay is classed as cell-based. Particulars: Table 7; Ramos cell adhesion to CS1 conjugated ovalbumin; dose required to give 50% inhibition. In short, it runs like this: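 Plates bearing CS1 fibronectin peptide coupled to ovalbumin (0.5 μg/ml coat, 3% BSA block) received calcein-labelled Ramos cells plus compound (100 μM stated) for 30 min at 37 °C. Buffer was TBS pH 7.5 with 1 mM Mg2+, Ca2+, Mn2+; bound cells quantified by fluorescence after lysis; […].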
Broadly, the IC50 is the midpoint of a concentration-inhibition curve. In the case of `CCOc1cccc(Cl)c1Cn1cc(C)c(O)c(NC(=O)NC(CC(=O)O)c2ccc(S(C)(=O)=O)cc2)c1=O` (stereo not drawn), the IC50 was 8 nM.

In the case of `CCOc1cccc(Cl)c1Cn1cc(C)c(O)c(NC(=O)NC(CC(=O)O)c2ccc3ccccc3c2)c1=O` (stereo not drawn), the IC50 is 13 nM. `Cc1cn(Cc2ccccc2Cl)c(=O)c(NC(=O)NC(CC(=O)O)c2cccc(N3CCCCC3)c2)c1O` (stereo not drawn): the IC50 was 22 nM.

As for `Cc1cn(Cc2ccccc2Cl)c(=O)c(NC(=O)NC(CC(=O)O)c2ccc(S(C)(=O)=O)cc2)c1O` (stereo not drawn), the IC50 was 134 nM. Next, `Cc1cn(Cc2ccccc2Cl)c(=O)c(NC(=O)NC(CC(=O)O)c2cccc(N3CCCC3)c2)c1O` (stereo not drawn): 10 nM; `CCOc1ccc(Cl)c(Cl)c1Cn1c2c(c(O)c(NC(=O)N[C@@H](CC(=O)O)c3cccc(OCC4CC4)c3)c1=O)CCC2`: 7 nM. `CCOc1cc([C@H](CC(=O)O)NC(=O)Nc2c(O)c3c(n(Cc4c(C)cccc4Cl)c2=O)CCC3)ccc1Cl`: the IC50 is 25 nM.

As to `Cc1cccc(Cl)c1Cn1c2c(c(O)c(NC(=O)N[C@@H](CC(=O)O)c3ccc(Cl)c(OC(C)C)c3)c1=O)CCC2`, the IC50 is 23 nM. As to `Cc1ccc([C@H](CC(=O)O)NC(=O)Nc2c(O)c(C)cn(Cc3c(Cl)cccc3OCc3ccccc3)c2=O)cc1`, the IC50 was 10 nM. Turning to `Cc1ccc([C@H](CC(=O)O)NC(=O)Nc2c(O)c(C)cn(Cc3cc(S(=O)(=O)N4CCCCC4)ccc3Cl)c2=O)cc1`, the half-inhibitory concentration (IC50) was 27 nM.

On to `Cc1ccc([C@H](CC(=O)O)NC(=O)Nc2c(O)c(C)cn(Cc3cc(S(=O)(=O)N4CCCC4)ccc3Cl)c2=O)cc1`, for which the IC50 was 15 nM.

With `CCOc1ccc(Cl)c(Cn2cc(C)c(O)c(NC(=O)N[C@@H](CC(=O)O)c3ccc(C)cc3)c2=O)c1`, the IC50 is 4 nM. Next, `CCCOc1ccc(Cl)c(Cn2cc(C)c(O)c(NC(=O)N[C@@H](CC(=O)O)c3ccc(C)cc3)c2=O)c1`: 6 nM; `Cc1ccc([C@H](CC(=O)O)NC(=O)Nc2c(O)c(C)cn(Cc3c(Cl)cccc3OCC3CCCC3)c2=O)cc1`: 20 nM; `CCOc1cccc(Cl)c1Cn1c2c(c(O)c(NC(=O)N[C@@H](CC(=O)O)c3cccc(CC(C)C)c3)c1=O)CCC2`: 4 nM. Next, `CCCc1cn(Cc2c(Cl)cccc2OCC)c(=O)c(NC(=O)N[C@@H](CC(=O)O)c2ccc(C)cc2)c1O`: 20 nM. The same measure for `CCOc1cccc(Cl)c1Cn1c2c(c(O)c(NC(=O)N[C@@H](CC(=O)O)c3ccc(C)cc3)c1=O)CCC2`: 3 nM; for `CCCc1cn(Cc2c(Cl)cccc2OCC)c(=O)c(NC(=O)N[C@@H](CC(=O)O)c2cccc(OCC)c2)c1O`: 6 nM. As to `CCCc1cn(Cc2c(Cl)cccc2OCC)c(=O)c(NC(=O)N[C@@H](CC(=O)O)c2ccccc2)c1O`, the IC50 is 23 nM. Regarding `CCCc1cn(Cc2c(Cl)cccc2OCC)c(=O)c(NC(=O)N[C@@H](CC(=O)O)c2cccc(OC(C)C)c2)c1O`, the half-maximal inhibitory concentration (IC50) is 22 nM. Next, `CCOc1cccc(Cl)c1Cn1c2c(c(O)c(NC(=O)N[C@@H](CC(=O)O)c3cccc(OC(C)C)c3)c1=O)CCC2`: 4 nM; `CCOc1ccc2cc([C@H](CC(=O)O)NC(=O)Nc3c(O)c(C)cn(Cc4c(Cl)cccc4OCC)c3=O)ccc2c1`: 6 nM. Consider `CCOc1cccc(Cl)c1Cn1c(C)c(CC)c(O)c(NC(=O)N[C@@H](CC(=O)O)c2ccccc2)c1=O`, for which the IC50 was 4 nM. The same measure for `Cc1ccc([C@H](CC(=O)O)NC(=O)Nc2c(O)c(C)cn(Cc3c(Cl)cccc3OCC(C)C)c2=O)cc1`: 22 nM. Turning to `CCOc1cc([C@H](CC(=O)O)NC(=O)Nc2c(O)c3c(n(Cc4c(C)cccc4Cl)c2=O)CCC3)c(Cl)c(OCC)c1Cl`, the IC50 is 500 nM. Next, `Cc1cccc(Cl)c1Cn1c2c(c(O)c(NC(=O)N[C@@H](CC(=O)O)c3cccc(OC4CCC4)c3)c1=O)CCC2`: 20 nM; `Cc1cccc(Cl)c1Cn1c2c(c(O)c(NC(=O)N[C@@H](CC(=O)O)c3cccc(OC4CC4)c3)c1=O)CCC2`: 4 nM. `Cc1cccc(Cl)c1Cn1c2c(c(O)c(NC(=O)N[C@@H](CC(=O)O)c3cccc(OCC4CC4)c3)c1=O)CCC2`: the IC50 is 10 nM. Next, `CCC(CC)Oc1cccc([C@H](CC(=O)O)NC(=O)Nc2c(O)c3c(n(Cc4c(C)cccc4Cl)c2=O)CCC3)c1`: 22 nM. Next, `CCCOc1cccc(Cl)c1Cn1cc(C)c(O)c(NC(=O)N[C@@H](CC(=O)O)c2ccc(C)cc2)c1=O`: 10 nM; `Cc1ccc(-c2ccc([C@H](CC(=O)O)NC(=O)Nc3c(O)ccn(Cc4ccccc4Cl)c3=O)cc2)cc1`: 40 nM; `Cc1cccc(-c2ccc([C@H](CC(=O)O)NC(=O)Nc3c(O)ccn(Cc4ccccc4Cl)c3=O)cc2)c1`: 30 nM. The same measure for `CCOc1cccc(-c2ccc([C@H](CC(=O)O)NC(=O)Nc3c(O)ccn(Cc4ccccc4Cl)c3=O)cc2)c1`: 27 nM; for `CCOc1cc([C@H](CC(=O)O)NC(=O)Nc2c(O)c3c(n(Cc4ccccc4Cl)c2=O)CCC3)cc(Cl)c1OCC`: 3 nM; for `CC(C)Cc1cccc([C@H](CC(=O)O)NC(=O)Nc2c(O)c3c(n(Cc4ccccc4Cl)c2=O)CCC3)c1`: 15 nM.

As to `CCC(CC)Oc1cccc([C@H](CC(=O)O)NC(=O)Nc2c(O)c3c(n(Cc4ccccc4Cl)c2=O)CCC3)c1`, the IC50 was 20 nM.

With `O=C(O)C[C@H](NC(=O)Nc1c(O)c2c(n(Cc3ccccc3Cl)c1=O)CCC2)c1cccc(OC2CCC2)c1`, the IC50 is 17 nM. The same measure for `Cn1ccc2ccc([C@H](CC(=O)O)NC(=O)Nc3c(O)c4c(n(Cc5ccccc5Cl)c3=O)CCC4)cc21`: 3 nM; for `COc1ccc2cc([C@H](CC(=O)O)NC(=O)Nc3c(O)c4c(n(Cc5ccccc5Cl)c3=O)CCC4)ccc2c1`: 3 nM. Next, `CCOc1ccc2cc([C@H](CC(=O)O)NC(=O)Nc3c(O)c4c(n(Cc5ccccc5Cl)c3=O)CCC4)ccc2c1`: 15 nM; `CCOc1c(Cl)ccc([C@H](CC(=O)O)NC(=O)Nc2c(O)c3c(n(Cc4ccccc4Cl)c2=O)CCC3)c1Cl`: 225 nM; `CCCOc1cccc([C@H](CC(=O)O)NC(=O)Nc2c(O)c3c(n(Cc4ccccc4Cl)c2=O)CCC3)c1`: 15 nM. In the case of `CCOc1cc([C@H](CC(=O)O)NC(=O)Nc2c(O)c3c(n(Cc4ccccc4Cl)c2=O)CCC3)ccc1Cl`, the IC50 is 30 nM.

With `COc1ccc(-c2ccc([C@H](CC(=O)O)NC(=O)Nc3c(O)c(C)cn(Cc4ccccc4Cl)c3=O)cc2)cc1`, the IC50 is 23 nM. On to `Cc1cn(Cc2ccccc2Cl)c(=O)c(NC(=O)N[C@@H](CC(=O)O)c2ccc3ccn(C)c3c2)c1O`, for which the IC50 is 4 nM. Consider `Cc1ccccc1-c1ccc([C@H](CC(=O)O)NC(=O)Nc2c(O)c(C)cn(Cc3ccccc3Cl)c2=O)cc1`, for which the IC50 was 55 nM.

For `CCOc1ncc([C@H](CC(=O)O)NC(=O)Nc2c(O)c(C)cn(Cc3ccccc3Cl)c2=O)c(OCC)n1`, the IC50 was 13 nM. The same measure for `CCOc1cccc([C@H](CC(=O)O)NC(=O)Nc2c(O)c3c(n(Cc4c(OCC)ccc(Cl)c4Cl)c2=O)CCC3)c1`: 3 nM; for `CCOc1ccc(Cl)c(Cl)c1Cn1c2c(c(O)c(NC(=O)N[C@@H](CC(=O)O)c3ccc(C)cc3)c1=O)CCC2`: 5 nM; for `CCOc1ccc(Cl)c(Cl)c1Cn1c2c(c(O)c(NC(=O)N[C@@H](CC(=O)O)c3cccc(OC(C)C)c3)c1=O)CCC2`: 5 nM. Next, `CCc1nn(Cc2ccccc2Cl)c(=O)c(NC(=O)N[C@@H](CC(=O)O)c2ccc(C)cc2)c1O`: 22 nM.
